Each compound was assayed on Trypanosoma brucei brucei (assay: microbe, parasite or virus in culture). Conditions: not given.
Format: functional, organism-based, STIB 795

IC50 [µM] | Compound
4.75 | Cc1ccccc1-c1nnnn1C1CC(=O)C2OCC1O2 (configuration not stated)

Same assay, conditions: Trypanosoma brucei, STIB 795

IC50 [µM] | Compound
> 10.4 | Cc1ccc2[nH]c3c(c2c1)CCCC3NCCCOc1ccc(F)cc1 (configuration not stated)
> 10.4 | C/C(=N\Nc1nnc2c(n1)[nH]c1c(C)cccc12)c1ccccc1O
> 10.4 | Cc1ccc(S(=O)(=O)Nc2ccc(Cl)c3cccnc23)cc1
> 10.4 | CCOC(=O)c1c(C)[nH]c(=S)c(C#N)c1-c1ccncc1
> 10.4 | Cc1nnc(Sc2nc(Nc3ccccc3)nc(Nc3ccccc3)n2)s1
> 10.4 | O=C(Nc1ccccc1C(=O)N/N=C/c1ccccc1O)c1ccccc1Cl
> 10.4 | Cc1ccc(NC(=O)CN(C)C(=O)c2ccc3c(c2)nnn3C(C)C)c(Cl)c1
4.58 | Cc1ccccc1-c1nnnn1C1CC(=O)C2OCC1O2 (configuration not stated)
> 10.4 | Cc1nn(C(=N)N)c(C)c1C1c2ccccc2CCc2ccccc21
> 10.4 | CCC(C)NC(=O)c1cccc(Nc2ccnc(-c3ccccc3)n2)c1 (configuration not stated)
> 10.4 | CCN(CC(O)COCCC12CC3CC(CC(C3)C1)C2)C1CCCCC1 (configuration not stated)
> 10.4 | COc1ccc(Nc2nccc(-c3cccc(N)c3)n2)cc1
> 10.4 | N#Cc1nc2c(c(N3CCNCC3)c1-c1ccccc1)CCCC2
> 10.4 | CC1CCc2nc3ccccc3c(N)c2C1 (configuration not stated)
> 10.4 | Cc1ccc(C(CC(=O)c2ccco2)SCCO)cc1 (configuration not stated)
> 10.4 | CCn1c(-c2ccccc2Cl)nc2ccccc21
> 10.4 | O=c1cc(-c2ccccc2)c2ccc(O)c(O)c2o1
> 10.4 | Cc1ccccc1C(=O)O/N=C(\N)c1ccccn1
> 10.4 | Cc1c(-c2ccc(O)c(O)c2)oc2ccccc2c1=O
> 10.4 | Cc1nc(SCC(=O)NC2CCCCC2)n(-c2ccccc2)c1C
> 10.4 | C=CCn1c(Oc2ccccc2Cl)nc2c1c(=O)n(C)c(=O)n2C

IC50 [µM] | Compound
> 10.4 | CSc1ccc(C(Nc2ccccn2)c2ccc3cccnc3c2O)cc1 (configuration not stated)
> 10.4 | CCCNc1nc(NC2CCCCC2)nc(NC2CCCCC2)n1
> 10.4 | COc1ccc(OC)c(/C=C/C(=O)Nc2ccc(C(=O)OCCC(C)C)cc2)c1
> 10.4 | N=C1C=Cc2ccc(N)c3cccc1c23
> 10.4 | O=C(Nc1ccccc1C(=O)N/N=C/c1ccccn1)c1ccc(Cl)cc1
> 10.4 | CCn1c2ccccc2c2cc(/C=N/NC(=O)c3ccccn3)ccc21
> 10.4 | COc1cccc(Nc2nc(N)c(C(=O)c3ccccc3F)s2)c1
> 10.4 | Cc1ccc(C(=N)NOC(=O)c2ccco2)cc1
> 10.4 | CCCCOc1ccc(C(=O)NNC(=S)NC(=O)CC)cc1
> 10.4 | CCN(CC)CCOC(COC)(c1ccc(Cl)cc1)c1ccc(Cl)cc1
> 10.4 | CCC(=O)Nc1nc2ccc(NS(=O)(=O)c3ccccc3F)cc2s1
> 10.4 | CCC(C)(C)c1ccc(OCC(O)CNCc2ccccc2)c(C(C)(C)CC)c1 (configuration not stated)
> 10.4 | COC(=O)C1=C(C)N(c2ccccc2)/C(=C/c2cccc3ccccc23)C1=O
> 10.4 | CCCCCn1c(C(Cc2ccccc2)NC(=O)COC)nc2ccccc21 (configuration not stated)
> 10.4 | CC(=O)NC1=C(N2CCN(c3ccc(F)cc3)CC2)C(=O)c2ccccc2C1=O
> 10.4 | OC(CNCc1ccccc1)COc1cc2ccsc2c2ccccc12 (configuration not stated)
> 10.4 | CCOC(=O)COc1ccc(/C=C\c2cc(C(F)(F)F)nc(=O)[nH]2)cc1OC
> 10.4 | CN(C)CC/C=C(\c1ccccc1)c1cccc(C(F)(F)F)c1
> 10.4 | CCC(=C\C1=[N+](C)c2ccccc2C1(C)C)/C=C1/N(C)c2ccccc2C1(C)C
> 10.4 | O=C(NCC1CCCO1)C(=O)N/N=C/c1c(O)ccc2ccccc12 (configuration not stated)
> 10.4 | COc1ccccc1NCN1C(=O)C(=O)c2cc(Br)ccc21

IC50 [µM] | Compound
> 10.4 | CCOC(=O)c1ccc(Nc2ncnc3c2cnn3-c2ccc(C)cc2C)cc1
> 10.4 | COc1ccc(O)c(/C=N/NC(=O)c2nonc2C)c1
> 10.4 | CCOC(=O)Cc1csc(NC(=S)NC(=O)C2CCCCC2)n1
> 10.4 | CC(C)N1C/C(=C\c2cccc(Cl)c2)C(=O)/C(=C/c2cccc(Cl)c2)C1
> 10.4 | CC(C)CCn1c(/C=N/Nc2nc3ccccc3[nH]2)nc2ccccc21
> 10.4 | c1ccc(-c2nnc(-c3ccccn3)nc2-c2ccccc2)cc1
> 10.4 | Cc1cc(C(=O)N/N=C/c2c(O)ccc3ccccc23)c(C)o1
> 10.4 | COc1ccc(CN2CCN(C3CCC(c4ccccc4)CC3)CC2)c(OC)c1 (configuration not stated)
> 10.4 | CN(C)c1ccc(N=c2cc(-c3ccccc3)sc(-c3ccccc3)c2)cc1
> 10.4 | NC(=S)N/N=C(/c1ccc(C(F)(F)F)cc1)c1ccccn1
> 10.4 | O=C(CCCOc1ccc(Cl)cc1Cl)N/N=C/c1ccc(O)cc1O
> 10.4 | Oc1c(C(Nc2ccccn2)c2ccc(OC(F)F)cc2)ccc2cccnc12 (configuration not stated)
> 10.4 | CC1CN(C(=O)c2ccc(COc3ccc(C(C)C)cc3)cc2)CC(C)O1 (configuration not stated)
> 10.4 | CCOC(=O)c1ccc(NC(=O)C(=O)NN=C2CCN(C)CC2)cc1
> 10.4 | COc1ccc(/C(C)=N\Nc2nnc(C)c(O)n2)cc1
> 10.4 | O=C(Nc1ccccc1C(=O)N/N=C/c1ccc(O)cc1O)c1ccc(F)cc1
> 10.4 | COc1ccc(CN2CCc3nc(N4CCC(C)CC4)ncc3C2)c(OC)c1
> 10.4 | CSc1ccc(/C=C2\CN(C)C/C(=C\c3ccc(SC)cc3)C2=O)cc1
> 10.4 | Cc1ccc2[nH]c3c(c2c1)CCC(/C=N/NC(=O)c1ccccc1)C3=O (configuration not stated)
> 10.4 | CCCCC(CC)C(=O)Nc1ccc2ccc3cccnc3c2n1 (configuration not stated)
> 10.4 | O=C1C(C2=C(O)c3ccccc3C2=O)=Nc2ccccc21

IC50 [µM] | Compound
> 10.4 | CC1CCN(Cc2cc(CSc3ccccc3)c3cccnc3c2O)CC1
> 10.4 | COc1ccc(C(=O)O/N=C(\N)c2ccc(Br)cc2)c(OC)c1
> 10.4 | COc1ccc(S(=O)(=O)C(CC(=O)c2ccccc2)c2ccccc2)cc1 (configuration not stated)
> 10.4 | COc1ccc2c(c1)SCc1ccccc1/C2=C\CCN(C)C
> 10.4 | COc1ccc2nc(C)cc(Nc3ccc(N4CCOCC4)cc3)c2c1
> 10.4 | O=C(CCN1CCCCC1)Nc1ccc(C2CCCC2)cc1
> 10.4 | CC(=O)c1cccc(Nc2cc(C)nc3c(C)cc(C)cc23)c1
> 10.4 | CC(=O)c1sc(Nc2nc(NC(C)C)nc(NC(C)C)n2)nc1C
> 10.4 | CCC(=O)N1CCN(c2oc(/C=C/c3ccc(Cl)cc3)nc2C#N)CC1
> 10.4 | CCN1CCC(N(Cc2cccs2)C(=O)Nc2ccc(C)c(Cl)c2)CC1
> 10.4 | C/C(=N\NC(=O)c1cccc(Cl)c1)c1ccccc1O
> 10.4 | COc1ccccc1NC(=S)N/N=C/c1cccn1Cc1ccccc1F
> 10.4 | CCc1c(C)nc(SCC#N)c(C#N)c1C
> 10.4 | CC(C)CCOc1ccc(/C=N/NC(=O)C23CC4CC(C)(CC(C)(C4)C2)C3)cc1
> 10.4 | O=C(CC1(O)C(=O)Nc2ccc(Br)cc21)c1ccc(Cl)s1 (configuration not stated)
> 10.4 | Cc1ccc(S(=O)(=O)/N=C2\C=C(N3CCOCC3)C(=O)c3ccccc32)cc1
> 10.4 | Cc1ccccc1C(=O)/C(C#N)=N/Nc1c(C)n(C)n(-c2ccccc2)c1=O
> 10.4 | COCCN1CSC(=S)N(Cc2ccc(OC)cc2)C1
> 10.4 | COc1ccc(-c2nc3c(=O)n(C)c(=O)nc-3n(C)n2)cc1OC
> 10.4 | O=C1C(=O)/C(=C/c2ccccc2)CCC/C1=C/c1ccccc1
> 10.4 | CCOC(=O)Cc1ccc(NCc2ccc(F)cc2)cc1

Compound | IC50 [µM]
OC(c1ccc(Cl)s1)(c1ccc(Cl)s1)C1CN2CCC1CC2 (configuration not stated) | > 10.4
Fc1ccc(C(OCCN2CCCC2)c2ccc(Br)cc2)cc1 (configuration not stated) | > 10.4
